This is an account of results in ChEMBL document CHEMBL1151843, “Chromones from the endophytic fungus Pestalotiopsis sp. isolated from the chinese mangrove plant Rhizophora mucronata” (J Nat Prod, 2009).

≈ marks a conversion by molar mass, not a printed value.

Usually EC50 stands for the midpoint of the concentration-response curve.

In this assay the test system is L5178Y. The experiment in a line: Cytotoxicity against mouse L5178Y cells after 72 hrs by MTT assay. Type of assay: functional, cell-based. (Tetrazolium assays rely on reduction of a dye to a coloured formazan, in cell work by metabolically active cells.)

Turning to `Cc1cc(O)cc2oc(C[C@H](C)O)cc(=O)c12`, the EC50 entry (l5178y) is recorded as “Not Active”.

In the case of `CCCCCCCc1cc(=O)c2c(CC(=O)OC)cc(O)cc2o1` [PESTALOTIOPSONE A], the EC50 result (l5178y) was “Not Active”. The same measure, in the same setting: as for `CCCCCCCc1cc(=O)c2c(CC(=O)OCC)cc(O)cc2o1` [PESTALOTIOPSONE B], the entry is “Not Active”; as for `CCCCCCCc1cc(=O)c2c(CC(=O)O)cc(O)cc2o1` [PESTALOTIOPSONE C], “Not Active”.

For `COC(=O)Cc1cc(O)cc2oc(CCCCCC(C)O)cc(=O)c12` (configuration not stated) [PESTALOTIOPSONE D], for the setting “l5178y”, the EC50 result is given as “Not Active”. As to `CCOC(=O)Cc1cc(O)cc2oc(CCCCCC(C)O)cc(=O)c12` (configuration not stated) [PESTALOTIOPSONE E], the EC50 result (l5178y) was “Not Active”. For the compound `CCCCCc1cc(=O)c2c(CC(=O)OC)cc(O)cc2o1` [PESTALOTIOPSONE F], the EC50 (Mus musculus, L5178Y, 72 h, read-out: EC50) stood at 8.93 µg/mL (≈ 29.3 µM).
